Source: patent US6355799B1, “Substituted benzene compounds, process for their preparation, and herbicidal and defoliant compositions containing them” (ISK Americas Incorporated, priority 1997, dated 2002)

Tests used:
Assay type in all cases: in vivo
[1] = system: redroot pigweed (Amaranthus retroflexus, AMARE); assay: Pre-emerge test, greenhouse herbicide activity screening; details: pre-emerge, 14 days after application
Summary of the method: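 Rating: 0–100 visual injury, 14 DAA. Application: acetone, 187 l/ha, 15–1000 g ai/ha, flat-fan track sprayer with nozzle 40–45 cm above soil or canopy. Post-emerge runs used 0.25% v/v surfactant on 2–3 leaf plants.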

[2] = system: barnyardgrass (Echinochloa crus-galli, ECHCG); assay: as above; details: pre-emerge, 14 days after application
Description: (§1) A standard greenhouse herbicide activity screening system was used to evaluate the herbicidal efficacy and crop safety of these test compounds. Seven broadleaf weed species including redroot pigweed (Amaranthus retroflexus, AMARE, velvetleaf (Abutilon theophrasti, ABUTH), sicklepod (Cassia obtusifolia, CASOB), ivyleaf morningglory (Ipomoea hederacea, IPOHE), lambsquarters (Chenopodium album, CHEAL), common ragweed (Ambrosia artemisizfolia L., AMBEL), and cocklebur (Xanthium strumarium, XANST) were used as test species. Four grass weed species including green foxtail (Setaria viridis, SETVI), barnyardgrass (Echinochloa crus-galli, ECHCG), johnsongrass (Sorghum halepense, SORHA), and large crabgrass (Digitaria sanguinalis, DIGSA) were also used. In addition, three crop species, field corn (Zea mays L., var. Dekalb 535, CORN), soybean (Glycine max L., var. Pella 86, SOY), and is upland rice (Oryza sp., var. Tebonnet, RICE) were included.
(§2) All plants were grown in 10 cm square plastic pots which were filled with a sandy loam soil mix. For pre-emerge tests, seeds were planted one day prior to application of the test compounds. For post-emerge tests, seeds were planted 8-21 days prior to the test to allow emergence and good foliage development prior to application of the test substances. At the time of the post-emerge application, plants of all species were usually at the 2-3 leaf stage of development.
(§3) All test compounds Were dissolved in acetone and applied to the test units in a volume of 187 l /ha. Test materials were applied at rates ranging from 15 g ai/ha to 1000 g ai/ha using a track sprayer equipped with a TJ8001E even flow flat fan spray nozzle. Plants were arranged on a shelf so that the top of the canopy (post-emerge) or top of the soil surface (pre-emerge) was 40-45 cm below the nozzle. Pressurized air was used to force the test solution through the nozzle as it was mechanically advanced (via electrically driven chain drive) over the top of all test plants/pots. This application simulates a typical commercial field herbicide application.
(§4) In the post-emerge test, a commercial non-ionic surfactant was also included (0.25% v/v) to enhance wetting of the leaf surfaces of target plants. Immediately after application, test units of the pre-emerge applications were watered at the soil surface to incorporate the test materials. Subsequently, these test units were bottom-watered. Post-emerge test units were always bottom-watered.
(§5) At 14 days after application of the test materials, phytotoxicity ratings were recorded. A rating scale of 0-100 was used as previously described in Research Methods in Weed Science, 2nd edition, B. Truelove, Ed., Southern Weed Science Society, Auburn University, Auburn, Ala. 1977. Briefly, “0” corresponds to no damage and “100” corresponds to complete death of all plants in the test unit. This scale was used both to determine efficacy against weed species and damage to crop species. Herbicide activity data for various compounds of this invention, which are shown by compound No. in Tables 1-8, are shown in Tables 11 and 12.

[3] = system: green foxtail (Setaria viridis, SETVI); assay: as above; details: pre-emerge, 14 days after application
Description: as §1, §2, §3, §4, §5

[4] = system: ivyleaf morningglory (Ipomoea hederacea, IPOHE); assay: as above; details: pre-emerge, 14 days after application
Description: as §1, §2, §3, §4, §5

[5] = system: lambsquarters (Chenopodium album, CHEAL); assay: as above; details: pre-emerge, 14 days after application
Description: as §1, §2, §3, §4, §5

[6] = system: large crabgrass (Digitaria sanguinalis, DIGSA); assay: as above; details: pre-emerge, 14 days after application
Description: as §1, §2, §3, §4, §5

[7] = system: sicklepod (Cassia obtusifolia, CASOB); assay: as above; details: pre-emerge, 14 days after application
Description: as §1, §2, §3, §4, §5

[8] = system: velvetleaf (Abutilon theophrasti, ABUTH); assay: as above; details: pre-emerge, 14 days after application
Description: as §1, §2, §3, §4, §5

[9] = system: field corn (Zea mays L., var. Dekalb 535, CORN); assay: Pre-emerge test, crop safety; details: pre-emerge, 14 days after application; for phytotoxicity rating CORN (crop damage): scale 0-100; for phytotoxicity rating CORN: rating scale 0-100
Summary of the method: (§6)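 Applied at 15–1000 g ai/ha from acetone in 187 l/ha spray volume. Post-emergence applications included 0.25% v/v non-ionic surfactant and reached plants sown 8–21 days before. Pre-emergence applications were incorporated by surface watering. Efficacy or crop damage was rated on a 0–100 scale after 14 days.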

[10] = system: upland rice (Oryza sp., var. Tebonnet, RICE); assay: Pre-emerge test, crop safety; details: pre-emerge, 14 days after application; for phytotoxicity rating RICE (crop damage): scale 0-100; for phytotoxicity rating RICE: rating scale 0-100
Summary of the method: as §6

[11] = system: barnyardgrass (Echinochloa crus-galli, ECHCG); assay: Post-emerge test, greenhouse herbicide activity screening; details: post-emerge, 14 days after application, rating scale 0-100
Description: as §1, §2, §3, §4, §5

[12] = system: green foxtail (Setaria viridis, SETVI); assay: as above; details: post-emerge, 14 days after application, rating scale 0-100
Description: as §1, §2, §3, §4, §5

[13] = system: ivyleaf morningglory (Ipomoea hederacea, IPOHE); assay: as above; details: post-emerge, 14 days after application, rating scale 0-100
Description: as §1, §2, §3, §4, §5

[14] = system: lambsquarters (Chenopodium album, CHEAL); assay: as above; details: post-emerge, 14 days after application, rating scale 0-100
Description: as §1, §2, §3, §4, §5

[15] = system: large crabgrass (Digitaria sanguinalis, DIGSA); assay: as above; details: post-emerge, 14 days after application, rating scale 0-100
Description: as §1, §2, §3, §4, §5

[16] = system: redroot pigweed (Amaranthus retroflexus, AMARE); assay: as above; details: post-emerge, 14 days after application
Description: as §1, §2, §3, §4, §5

[17] = system: sicklepod (Cassia obtusifolia, CASOB); assay: as above; details: post-emerge, 14 days after application, rating scale 0-100
Description: as §1, §2, §3, §4, §5

[18] = system: velvetleaf (Abutilon theophrasti, ABUTH); assay: as above; details: post-emerge, 14 days after application, rating scale 0-100
Description: as §1, §2, §3, §4, §5

[19] = system: field corn (Zea mays L., var. Dekalb 535, CORN); assay: Post-emerge test, crop safety; details: post-emerge, 14 days after application, rating scale 0-100
Summary of the method: (§7)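 Compounds in acetone were track-sprayed at 15-1000 g ai/ha (187 l/ha) on sandy loam pots: pre-emerge one day after seeding, post-emerge at 2-3 leaf stage with 0.25% v/v non-ionic surfactant. Phytotoxicity was rated 14 days later on a 0 (no damage) to 100 (complete death) scale.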

[20] = system: upland rice (Oryza sp., var. Tebonnet, RICE); assay: Post-emerge test, crop safety; details: post-emerge, 14 days after application, rating scale 0-100
Summary of the method: as §7

[21] = 250 g ai/ha, rating scale 0-100

Structure (SMILES): COc1c(C#N)cc(F)c(-n2c(=O)cc(C(F)(F)F)n(C)c2=O)c1NC(=O)c1ccc2ccccc2c1 [2-180]
- phytotoxicity rating AMARE ([1]; 63 g ai/ha, scale 0-100): 100
- phytotoxicity rating AMARE ([1]; 250 g ai/ha, scale 0-100): 100
- phytotoxicity rating ECHCG ([2]; 63 g ai/ha, scale 0-100): 10
- phytotoxicity rating ECHCG ([2]; 250 g ai/ha, scale 0-100): 80
- phytotoxicity rating SETVI ([3]; 63 g ai/ha, scale 0-100): 30
- phytotoxicity rating SETVI ([3]; 250 g ai/ha, scale 0-100): 90
- phytotoxicity rating IPOHE ([4]; 63 g ai/ha, scale 0-100): 60
- phytotoxicity rating IPOHE ([4]; 250 g ai/ha, scale 0-100): 100
- phytotoxicity rating CHEAL ([5]; 63 g ai/ha, scale 0-100): 100
- phytotoxicity rating CHEAL ([5]; 250 g ai/ha, scale 0-100): 100
- phytotoxicity rating DIGSA ([6]; 63 g ai/ha, scale 0-100): 20
- phytotoxicity rating DIGSA ([6]; 250 g ai/ha, scale 0-100): 90
- phytotoxicity rating CASOB ([7]; 63 g ai/ha, scale 0-100): 40
- phytotoxicity rating CASOB ([7]; 250 g ai/ha, scale 0-100): 50
- phytotoxicity rating ABUTH ([8]; 63 g ai/ha, scale 0-100): 100
- phytotoxicity rating ABUTH ([8]; 250 g ai/ha, scale 0-100): 100
- phytotoxicity rating CORN (crop damage) ([9]; 63 g ai/ha): 0
- phytotoxicity rating CORN (crop damage) ([9]; 250 g ai/ha): 5
- phytotoxicity rating RICE (crop damage) ([10]; 63 g ai/ha): 40
- phytotoxicity rating RICE (crop damage) ([10]; 250 g ai/ha): 70
- ECHCG phytotoxicity rating ([11]; 63 g ai/ha): 40
- ECHCG phytotoxicity rating ([11]; 250 g ai/ha): 60
- SETVI phytotoxicity rating ([12]; 63 g ai/ha): 60
- SETVI phytotoxicity rating ([12]; 250 g ai/ha): 70
- IPOHE phytotoxicity rating ([13]; 63 g ai/ha): 100
- IPOHE phytotoxicity rating ([13]; 250 g ai/ha): 100
- CHEAL phytotoxicity rating ([14]; 63 g ai/ha): 100
- CHEAL phytotoxicity rating ([14]; 250 g ai/ha): 100
- DIGSA phytotoxicity rating ([15]; 63 g ai/ha): 40
- DIGSA phytotoxicity rating ([15]; 250 g ai/ha): 40
- AMARE phytotoxicity rating ([16]; 63 g ai/ha, rating scale 0-100): 100
- AMARE phytotoxicity rating [16, 21]: 100
- CASOB phytotoxicity rating ([17]; 63 g ai/ha): 100
- CASOB phytotoxicity rating ([17]; 250 g ai/ha): 100
- ABUTH phytotoxicity rating ([18]; 63 g ai/ha): 100
- ABUTH phytotoxicity rating ([18]; 250 g ai/ha): 100
- CORN phytotoxicity rating (crop damage) ([19]; 63 g ai/ha): 5
- CORN phytotoxicity rating (crop damage) ([19]; 250 g ai/ha): 20
- RICE phytotoxicity rating (crop damage) ([20]; 63 g ai/ha): 20
- RICE phytotoxicity rating (crop damage) ([20]; 250 g ai/ha): 65

Structure (SMILES): COc1c(Cl)cc(F)c(-n2c(=O)cc(C(F)(F)F)n(C)c2=O)c1NN=Cc1ccc2ccccc2c1 [15-22]
- phytotoxicity rating AMARE ([1]; 63 g ai/ha, rating scale 0-100): 100
- phytotoxicity rating AMARE [1, 21]: 100
- phytotoxicity rating ECHCG ([2]; 63 g ai/ha, rating scale 0-100): 60
- phytotoxicity rating ECHCG [2, 21]: 100
- phytotoxicity rating SETVI ([3]; 63 g ai/ha, rating scale 0-100): 90
- phytotoxicity rating SETVI [3, 21]: 100
- phytotoxicity rating IPOHE ([4]; 63 g ai/ha, rating scale 0-100): 50
- phytotoxicity rating IPOHE [4, 21]: 100
- phytotoxicity rating CHEAL ([5]; 63 g ai/ha, rating scale 0-100): 100
- phytotoxicity rating CHEAL [5, 21]: 100
- phytotoxicity rating DIGSA ([6]; 63 g ai/ha, rating scale 0-100): 100
- phytotoxicity rating DIGSA [6, 21]: 100
- phytotoxicity rating CASOB ([7]; 63 g ai/ha, rating scale 0-100): 100
- phytotoxicity rating CASOB [7, 21]: 100
- phytotoxicity rating ABUTH ([8]; 63 g ai/ha, rating scale 0-100): 100
- phytotoxicity rating ABUTH [8, 21]: 100
- phytotoxicity rating CORN ([9]; 63 g ai/ha): 25
- phytotoxicity rating CORN ([9]; 250 g ai/ha): 95
- phytotoxicity rating RICE ([10]; 63 g ai/ha): 30
- phytotoxicity rating RICE ([10]; 250 g ai/ha): 99
- Post-emerge Herbicidal Activity ECHCG (phytotoxicity rating) ([11]; 63 g ai/ha): 40
- Post-emerge Herbicidal Activity ECHCG (phytotoxicity rating) ([11]; 250 g ai/ha): 100
- Post-emerge Herbicidal Activity SETVI (phytotoxicity rating) ([12]; 63 g ai/ha): 40
- Post-emerge Herbicidal Activity SETVI (phytotoxicity rating) ([12]; 250 g ai/ha): 95
- Post-emerge Herbicidal Activity IPOHE (phytotoxicity rating) ([13]; 63 g ai/ha): 100
- Post-emerge Herbicidal Activity IPOHE (phytotoxicity rating) ([13]; 250 g ai/ha): 100
- Post-emerge Herbicidal Activity CHEAL (phytotoxicity rating) ([14]; 63 g ai/ha): 100
- Post-emerge Herbicidal Activity CHEAL (phytotoxicity rating) ([14]; 250 g ai/ha): 100
- Post-emerge Herbicidal Activity DIGSA (phytotoxicity rating) ([15]; 63 g ai/ha): 30
- Post-emerge Herbicidal Activity DIGSA (phytotoxicity rating) ([15]; 250 g ai/ha): 90
- Post-emerge Herbicidal Activity AMARE (phytotoxicity rating) ([16]; 63 g ai/ha, rating scale 0-100 (0 no damage, 100 complete death)): 100
- Post-emerge Herbicidal Activity AMARE (phytotoxicity rating) [16, 21]: 100
- Post-emerge Herbicidal Activity CASOB (phytotoxicity rating) ([17]; 63 g ai/ha): 70
- Post-emerge Herbicidal Activity CASOB (phytotoxicity rating) ([17]; 250 g ai/ha): 100
- Post-emerge Herbicidal Activity ABUTH (phytotoxicity rating) ([18]; 63 g ai/ha): 100
- Post-emerge Herbicidal Activity ABUTH (phytotoxicity rating) ([18]; 250 g ai/ha): 100
- Post-emerge Herbicidal Activity CORN (crop damage rating) ([19]; 63 g ai/ha): 30
- Post-emerge Herbicidal Activity CORN (crop damage rating) ([19]; 250 g ai/ha): 90
- Post-emerge Herbicidal Activity RICE (crop damage rating) ([20]; 63 g ai/ha): 50
- Post-emerge Herbicidal Activity RICE (crop damage rating) ([20]; 250 g ai/ha): 90
